Results published in patent publication US9193733B2, “Piperidinylcyclobutyl substituted pyrrolopyridine and pyrrolopyrimidine derivatives as JAK inhibitors” (Incyte Corporation, priority 2012, dated 2015).
Structures can show the parent of a compound that is named as a salt.

What was measured:
Type in all cases: biochemical
[1] = target: T1, human JAK1 (a.a. 837-1142) catalytic domain (Homo sapiens, UniProt P23458); assay: In vitro JAK kinase assay (HTRF, phosphorylation of a biotinylated peptide), JAK1; settings: 1 mM ATP
T1 construct: human JAK1 (a.a. 837-1142) and JAK2 (a.a. 828-1132); His tag (N); made in house; host or cells: insect cells (baculovirus)
Procedure: (§1) Compounds herein were tested for inhibitory activity of JAK targets according to the following in vitro assay described in Park et al., Analytical Biochemistry 1999, 269, 94-104. The catalytic domains of human JAK1 (a.a. 837-1142) and JAK2 (a.a. 828-1132) with an N-terminal His tag were expressed using baculovirus in insect cells and purified. The catalytic activity of JAK1 and JAK2 was assayed by measuring the phosphorylation of a biotinylated peptide. The phosphorylated peptide was detected by homogenous time resolved fluorescence (HTRF). IC50s of compounds were measured for each kinase in the 40 microL reactions that contain the enzyme, ATP and 500 nM peptide in 50 mM Tris (pH 7.8) buffer with 100 mM NaCl, 5 mM DTT, and 0.1 mg/mL (0.01%) BSA. For the 1 mM IC50 measurements, ATP concentration in the reactions was 1 mM. Reactions were carried out at room temperature for 1 hour and then stopped with 20 μL 45 mM EDTA, 300 nM SA-APC, 6 nM Eu-Py20 in assay buffer (Perkin Elmer, Boston, Mass.). Binding to the Europium labeled antibody took place for 40 minutes and HTRF signal was measured on a Fusion plate reader (Perkin Elmer, Boston, Mass.). See Table A for data related to compounds of the Examples (at 1 mM). Data is indicated as ranges: <20 nM (+), 20 to <150 nM (++), 150 to 500 nM (+++).

[2] = system: human JAK1 (a.a. 837-1142) catalytic domain; assay: as above; settings: ratio of JAK2 IC50 to JAK1 IC50, 1 mM ATP
Procedure: as §1

[3] = target: T2, human JAK2 (a.a. 828-1132) catalytic domain (Homo sapiens, UniProt O60674); assay: In vitro JAK kinase assay (HTRF, phosphorylation of a biotinylated peptide), JAK2; settings: 1 mM ATP
T2 construct: human JAK1 (a.a. 837-1142) and JAK2 (a.a. 828-1132); His tag (N); made in house; host or cells: insect cells (baculovirus)
Procedure: as §1

T1 sequence (P23458 849-1154): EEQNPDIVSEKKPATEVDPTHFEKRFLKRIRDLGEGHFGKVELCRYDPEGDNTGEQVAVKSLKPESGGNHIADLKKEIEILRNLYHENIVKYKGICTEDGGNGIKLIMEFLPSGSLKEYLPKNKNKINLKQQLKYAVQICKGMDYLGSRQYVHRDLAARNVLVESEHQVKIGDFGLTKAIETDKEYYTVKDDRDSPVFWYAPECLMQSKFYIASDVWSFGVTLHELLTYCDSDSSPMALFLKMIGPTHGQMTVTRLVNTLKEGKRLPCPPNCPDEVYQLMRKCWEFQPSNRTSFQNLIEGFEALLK
T2 sequence (O60674 828-1132): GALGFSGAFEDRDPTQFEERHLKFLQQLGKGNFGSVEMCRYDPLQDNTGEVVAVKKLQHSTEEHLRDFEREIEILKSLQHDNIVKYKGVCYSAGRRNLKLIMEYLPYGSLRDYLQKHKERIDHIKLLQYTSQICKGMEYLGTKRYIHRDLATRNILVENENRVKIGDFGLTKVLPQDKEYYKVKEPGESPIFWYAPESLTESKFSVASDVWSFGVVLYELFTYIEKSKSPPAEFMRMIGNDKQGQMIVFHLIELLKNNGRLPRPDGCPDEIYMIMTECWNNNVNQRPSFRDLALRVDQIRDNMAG

Row | SMILES | IC50 [1] [nM] | JAK2/JAK1 [2] | IC50 [3] [nM]
1 | CC1(C)CN(Cc2cc(OC3CCN([C@H]4C[C@](CC#N)(n5cc(-c6ncnc7[nH]ccc67)cn5)C4)CC3)nc(C(F)(F)F)c2)C1 [Example 13, {trans-3-(4-{[4-[(3,3-dimethylazetidin-1-yl)methyl]-6-(trifluoromethyl)pyridin-2-yl]oxy}piperidin-1-yl)-1-[4-(7H-pyrrolo[2,3-d]pyrimidin-4-yl)-1H-pyrazol-1-yl]cyclobutyl}acetonitrile] | < 20 | >10 | 20 to 150
2 | CC1(NCc2cc(OC3CCN([C@H]4C[C@](CC#N)(n5cc(-c6ncnc7[nH]ccc67)cn5)C4)CC3)nc(C(F)(F)F)c2)COC1 [Example 9, {trans-3-(4-{[4-{[(3-methyloxetan-3-yl)amino]methyl}-6-(trifluoromethyl)pyridin-2-yl]oxy}piperidin-1-yl)-1-[4-(7H-pyrrolo[2,3-d]pyrimidin-4-yl)-1H-pyrazol-1-yl]cyclobutyl}acetonitrile] | < 20 | >10 | 20 to 150
3 | N#CC[C@]1(n2cc(-c3ccnc4[nH]ccc34)cn2)C[C@H](N2CCC(Oc3cc(CNCCO)cc(C(F)(F)F)n3)CC2)C1 [Example 21, {trans-3-(4-{[4-{[(2-hydroxyethyl)amino]methyl}-6-(trifluoromethyl)pyridin-2-yl]oxy}piperidin-1-yl)-1-[4-(1H-pyrrolo[2,3-b]pyridin-4-yl)-1H-pyrazol-1-yl]cyclobutyl}acetonitrile] | < 20 | >10 | 150 to 500
4 | N#CC[C@]1(n2cc(-c3ncnc4[nH]ccc34)cn2)C[C@H](N2CCC(Oc3cc(CN[C@H]4C[C@@H](O)C4)cc(C(F)(F)F)n3)CC2)C1 [Example 18, {trans-3-(4-{[4-{[(cis-3-hydroxycyclobutyl)amino]methyl}-6-(trifluoromethyl)pyridin-2-yl]oxy}piperidin-1-yl)-1-[4-(7H-pyrrolo[2,3-d]pyrimidin-4-yl)-1H-pyrazol-1-yl]cyclobutyl}acetonitrile 3.6 x trifluoroacetate salt] | < 20 | >10 | 20 to 150
5 | N#CC[C@]1(n2cc(-c3ncnc4[nH]ccc34)cn2)C[C@H](N2CCC(Oc3cc(CN[C@@H]4CCOC4)cc(C(F)(F)F)n3)CC2)C1 [Example 8, [trans-1-[4-(7H-pyrrolo[2,3-d]pyrimidin-4-yl)-1H-pyrazol-1-yl]-3-(4-{[4-{[(3R)-tetrahydrofuran-3-ylamino]methyl}-6-(trifluoromethyl)pyridin-2-yl]oxy}piperidin-1-yl)cyclobutyl]acetonitrile] | < 20 | >10 | 20 to 150
6 | CC1(NCc2cc(OC3CCN([C@H]4C[C@](CC#N)(n5cc(-c6ncnc7[nH]ccc67)cn5)C4)CC3)nc(C(F)(F)F)c2)CC1 [Example 10, {trans-3-(4-{[4-{[(1-methylcyclopropyl)amino]methyl}-6-(trifluoromethyl)pyridin-2-yl]oxy}piperidin-1-yl)-1-[4-(7H-pyrrolo[2,3-d]pyrimidin-4-yl)-1H-pyrazol-1-yl]cyclobutyl}acetonitrile] | < 20 | >10 | 20 to 150
7 | C[C@H](CO)NCc1cc(OC2CCN([C@H]3C[C@](CC#N)(n4cc(-c5ncnc6[nH]ccc56)cn4)C3)CC2)nc(C(F)(F)F)c1 [Example 2, {trans-3-(4-{[4-({[(1R)-2-hydroxy-1-methylethyl]amino}methyl)-6-(trifluoromethyl)pyridin-2-yl]oxy}piperidin-1-yl)-1-[4-(7H-pyrrolo[2,3-d]pyrimidin-4-yl)-1H-pyrazol-1-yl]cyclobutyl}acetonitrile] | < 20 | >10 | 20 to 150
8 | C[C@@H](O)CNCc1cc(OC2CCN([C@H]3C[C@](CC#N)(n4cc(-c5ncnc6[nH]ccc56)cn4)C3)CC2)nc(C(F)(F)F)c1 [Example 14, {trans-3-(4-{[4-({[(2R)-2-hydroxypropyl]amino}methyl)-6-(trifluoromethyl)pyridin-2-yl]oxy}piperidin-1-yl)-1-[4-(7H-pyrrolo[2,3-d]pyrimidin-4-yl)-1H-pyrazol-1-yl]cyclobutyl}acetonitrile] | < 20 | >10 | 20 to 150

The remaining lines, values ahead:

Row | IC50 [1] [nM] | JAK2/JAK1 [2] | IC50 [3] [nM] | SMILES
9 | < 20 | >10 | 20 to 150 | N#CC[C@]1(n2cc(-c3ncnc4[nH]ccc34)cn2)C[C@H](N2CCC(Oc3cc(C4(N)COC4)cc(C(F)(F)F)n3)CC2)C1 [Example 50, {trans-3-(4-{[4-(3-aminooxetan-3-yl)-6-(trifluoromethyl)pyridin-2-yl]oxy}piperidin-1-yl)-1-[4-(7H-pyrrolo[2,3-d]pyrimidin-4-yl)-1H-pyrazol-1-yl]cyclobutyl}acetonitrile]
10 | < 20 | >10 | 150 to 500 | N#CC[C@]1(n2cc(-c3ncnc4[nH]ccc34)cn2)C[C@H](N2CCC(Oc3cc(Cn4cccn4)cc(C(F)(F)F)n3)CC2)C1 [Example 25, {trans-3-(4-{[4-(1H-pyrazol-1-ylmethyl)-6-(trifluoromethyl)pyridin-2-yl]oxy}piperidin-1-yl)-1-[4-(7H-pyrrolo[2,3-d]pyrimidin-4-yl)-1H-pyrazol-1-yl]cyclobutyl}acetonitrile]
11 | < 20 | >10 | 20 to 150 | N#CC[C@]1(n2cc(-c3ncnc4[nH]ccc34)cn2)C[C@H](N2CCC(Nc3cc(CN[C@H]4C[C@H](O)C4)cc(C(F)(F)F)n3)CC2)C1 [Example 34, {trans-3-(4-{[4-{[(trans-3-hydroxycyclobutyl)amino]methyl}-6-(trifluoromethyl)pyridin-2-yl]amino}piperidin-1-yl)-1-[4-(7H-pyrrolo[2,3-d]pyrimidin-4-yl)-1H-pyrazol-1-yl]cyclobutyl}acetonitrile]
12 | < 20 | >10 | 150 to 500 | CC1(C)CN(C(=O)c2cc(OC3CCN([C@H]4C[C@](CC#N)(n5cc(-c6ncnc7[nH]ccc67)cn5)C4)CC3)nc(C(F)(F)F)c2)C1 [Example 26, {trans-3-(4-{[4-[(3,3-dimethylazetidin-1-yl)carbonyl]-6-(trifluoromethyl)pyridin-2-yl]oxy}piperidin-1-yl)-1-[4-(7H-pyrrolo[2,3-d]pyrimidin-4-yl)-1H-pyrazol-1-yl]cyclobutyl}acetonitrile]
13 | < 20 | >10 | 20 to 150 | CCNCc1cc(NC2CCN([C@H]3C[C@](CC#N)(n4cc(-c5ncnc6[nH]ccc56)cn4)C3)CC2)nc(C(F)(F)F)c1 [Example 32, {trans-3-(4-{[4-[(ethylamino)methyl]-6-(trifluoromethyl)pyridin-2-yl]amino}piperidin-1-yl)-1-[4-(7H-pyrrolo[2,3-d]pyrimidin-4-yl)-1H-pyrazol-1-yl]cyclobutyl}acetonitrile]
14 | < 20 | >10 | 20 to 150 | N#CC[C@]1(n2cc(-c3ncnc4[nH]ccc34)cn2)C[C@H](N2CCC(Nc3cc(CNCCO)nc(C(F)(F)F)n3)CC2)C1 [Example 29, {trans-3-(4-{[6-{[(2-hydroxyethyl)amino]methyl}-2-(trifluoromethyl)pyrimidin-4-yl]amino}piperidin-1-yl)-1-[4-(7H-pyrrolo[2,3-d]pyrimidin-4-yl)-1H-pyrazol-1-yl]cyclobutyl}acetonitrile]
15 | < 20 | >10 | 20 to 150 | N#CC[C@]1(n2cc(-c3ncnc4[nH]ccc34)cn2)C[C@H](N2CCC(Nc3cc(CN4CCC4)cc(C(F)(F)F)n3)CC2)C1 [Example 39, {trans-3-(4-{[4-(azetidin-1-ylmethyl)-6-(trifluoromethyl)pyridin-2-yl]amino}piperidin-1-yl)-1-[4-(7H-pyrrolo[2,3-d]pyrimidin-4-yl)-1H-pyrazol-1-yl]cyclobutyl}acetonitrile]
16 | < 20 | >10 | 150 to 500 | CN(c1cc(CO)cc(C(F)(F)F)n1)C1CCN([C@H]2C[C@](CC#N)(n3cc(-c4ncnc5[nH]ccc45)cn3)C2)CC1 [Example 47, {trans-3-{4-[[4-(hydroxymethyl)-6-(trifluoromethyl)pyridin-2-yl](methyl)amino]piperidin-1-yl}-1-[4-(7H-pyrrolo[2,3-d]pyrimidin-4-yl)-1H-pyrazol-1-yl]cyclobutyl}acetonitrile]
17 | < 20 | >10 | 20 to 150 | N#CC[C@]1(n2cc(-c3ncnc4[nH]ccc34)cn2)C[C@H](N2CCC(Nc3cc(CN4CC5(COC5)C4)cc(C(F)(F)F)n3)CC2)C1 [Example 46, {trans-3-(4-{[4-(2-oxa-6-azaspiro[3.3]hept-6-ylmethyl)-6-(trifluoromethyl)pyridin-2-yl]amino}piperidin-1-yl)-1-[4-(7H-pyrrolo[2,3-d]pyrimidin-4-yl)-1H-pyrazol-1-yl]cyclobutyl}acetonitrile]
